“Also recorded” adds a separate entry of the source. Like-named read-outs stand apart in the source and are kept apart here.
How the values were obtained:
[1] = system: Mouse intestine (entero-endocrine) STC-1 cells
Protocol: Appropriate blanks, positive controls, and standards were also included.
The lactate dehydrogenase (LDH) leakage from cells was analyzed in the supernatants as a marker for cytotoxic cell death.

HUVEC cells [2] = assay: Oxidative damage: protein carbonyls in HUVEC; assay type: cell-based, human; settings: HG 30 mM glucose 24 h, with or without 5 mM ERT/MAN
Protocol: The prepared cells were seeded in 6 well plates and T75 flasks and grown until 80% confluence. The medium was removed, and the cells were washed with Hank's Balanced Salt Solution (HBSS). […] The vehicle solution is the solvent for the test compounds, in this case being the medium without supplements. […] The cells described above were also incubated for 24 hours with a 7 mM, normal glucose (NG) solution or in some instances, with a 15 mM, intermediary glucose (IG) solution. See, for example, FIG. 6. Subsequently, the cells were incubated for 24 hours. The same protocol was used for incubation with Nε-(carboxymethyl)lysine (CML, final concentration 1 micromolar) and 1,3-morpholino sidnonimine (SIN-1, final concentration 0.5 mM). […] Hyperglycemia is strongly associated with oxidative stress, an imbalance between the formation of reactive oxygen species and the present antioxidants. Excess reactive oxygen species react with critical cellular targets, viz. membrane lipids, proteins and (deoxy)ribonucleic acids. […] Accordingly, one of the targeted assays included studying a comparison of HG to HGERT conditions, where the oxidative damage was evaluated showing that the protein carbonyls decreased from 6.55 nM/mg protein with HG to 3.77 with […]=0.089). Protein carbonyls are end products of reactions between proteins and reactive oxygen species (ROS), formed during oxidative stress. […]

HUVEC cells [3] = assay: HUVEC cell viability assay (trypan blue, percentage of dead cells); assay type: cell-based, human; settings: ERT/MAN 5 mM 1 h before, SIN-1 0.5 mM, CML 1 micromolar
Protocol: A HUVEC cell line (CRL-1730) was obtained from American Type Culture Collection (ATCC) of Manassas, Va. […] The prepared cells were maintained in collagen coated T75 flasks (Greiner Bio-one) at 37° C. in a 5% CO2 atmosphere. The prepared cells were subjected to various stressors. Stressors, for purposes of the examples, include conditions of stress caused by glucose directly or indirectly through the formation or elevation of other substances that cause stress. Diabetic stressors include high glucose (HG; 30 mM, 24 h), TNFα: pro-inflammatory agent, Nε carboxymethyllysine: advanced glycation end (AGE) product, and SIN-1: peroxynitrite generator. Prepared cells were also exposed to normal glucose (NG; 7 mM, 24 h) as a control. The prepared cells were seeded in 6 well plates and T75 flasks and grown until 80% confluence. The medium was removed, and the cells were washed with Hank's Balanced Salt Solution (HBSS). […] The vehicle solution is the solvent for the test compounds, in this case being the medium without supplements. […] The cells described above were also incubated for 24 hours with a 7 mM, normal glucose (NG) solution or in some instances, with a 15 mM, intermediary glucose (IG) solution. See, for example, FIG. 6. Subsequently, the cells were incubated for 24 hours. The same protocol was used for incubation with Nε-(carboxymethyl)lysine (CML, final concentration 1 micromolar) and 1,3-morpholino sidnonimine (SIN-1, final concentration 0.5 mM). […] In a cell viability assay, fresh, untreated HUVEC cells were grown in 6 well plates until 80% confluence. Subsequently, the incubation medium was removed and the cells were washed with HBSS and harvested with trypsin. All cell material, including the medium and the HBSS wash, was collected and centrifuged for 5 minutes at 500×g. […] The number of viable (white) and dead (blue) cells were counted in 25 squares, and the count was repeated an additional two times for each sample, for a total of three counts per sample. […] The percentage of dead cells was then calculated with the formula: (blue cells/(blue cells+white cells))*100.

## O=C(CO)[C@@H](O)[C@H](O)[C@H](O)CO[C@H]1O[C@H](CO)[C@@H](O)[C@H](O)[C@H]1O [6-O-α-D-glucopyranosyl-D-fructose]
[1]
  cell death (leakage of lactate dehydrogenase): cell death was higher

## OC[C@@H](O)[C@@H](O)[C@H](O)[C@H](O)CO [MAN, (2R,3R,4R,5R)-hexaan-1,2,3,4,5,6-hexol, reference compound]
HUVEC cells [2]
  protein carbonyls: did not reduce protein carbonyls

## [NH-]c1c[n+](N2CCOCC2)no1 [SIN-1, 3-morpholinosidnonimine]
HUVEC cells [3]; HG 30 mM glucose 24 h, listed as SIN
  percentage of dead cells (Average): 12.59%
HUVEC cells [3]; NG 7 mM glucose 24 h
  percentage of dead cells (Average): significant increase in the amount of dead cells; also recorded: increased the number of dead cells
HUVEC cells [3]; NG 7 mM glucose 24 h, listed as SIN
  percentage of dead cells (Average): 12.29%

## O=C(CO)[C@@H](O)[C@H](O)[C@H](O)CO [fructose]
[1]; STC-1 cells, 10% w/v, 2 hours at 37° C.
  cell death (leakage of lactate dehydrogenase): cell death was higher

## OC[C@H]1O[C@@](CO)(O[C@H]2O[C@H](CO)[C@@H](O)[C@H](O)[C@H]2O)[C@@H](O)[C@@H]1O [sucrose]
[1]
  cell death (leakage of lactate dehydrogenase): cell death was higher

— patent US20150104868A1, “Methods of Maintaining and Improving Biological Cell Function and Activity” (GARGILL INCORPORATED, priority 2012, published 2015)
